According to the OPERA property sets (Mansouri et al. 2018):

conditions: not given

Compound	log10 vapour pressure (mmHg)	melting point [°C]	boiling point [°C]	ready biodegradability	log10 Koc (L/kg)
O=C(NC(=O)c1c(F)cccc1F)Nc1cc(Cl)c(F)c(Cl)c1F	-11.2	222	–	–	–
N#CCCCCl	–	–	192	–	–
O=C(Cl)C(F)(F)C(F)(F)C(F)(F)C(F)(F)C(F)(F)C(F)(F)C(F)(F)F	–	–	131	–	–
CC(C)(Oc1ccc(Cl)cc1)C(=O)OCc1cccnc1	–	48.5	–	–	–
CC1CCCCC1(C)C (configuration not stated)	–	-29	145	–	–
Cc1ccc(Cl)c(C)c1	–	-32.5	184	–	–
COc1ccc(N(CCCC(=O)O)C(=O)c2ccc(Cl)cc2)cc1	–	116	–	–	–
CS(=O)(=O)F	1.04	–	124	–	–
CCOc1ccc(NC(=O)C(C)O)cc1 (configuration not stated)	–	118	–	–	–
CC1(C)O[C@@H]2C[C@H]3[C@@H]4CCC5=CC(=O)C=C[C@]5(C)[C@H]4[C@@H](O)C[C@]3(C)[C@]2(C(=O)CO)O1	–	274	–	–	–
Oc1ccc(Cl)cc1	-1.05	42.7	220	not readily biodegradable	–
O=C1OCc2c(Cl)c(Cl)c(Cl)c(Cl)c21	-7.65	210	–	–	3.3
O=C(O)C(=O)Nc1ccccc1	–	150	–	–	–
O=C1C(Br)=CC(=NCl)C=C1Br	–	83	–	–	–
CNCCN(C)C	–	–	117	–	–
CCC(C)NC(C)CC (configuration not stated)	–	–	135	not readily biodegradable	–
CCN(Cc1ccccc1)c1ccccc1	–	35	288	–	–
CCOC(=O)c1ccccc1N	–	13	268	–	–
Cc1ccc2cc3c(ccc4ccccc43)cc2c1	–	152	–	–	–
ClCc1ccc(Cl)cc1Cl	-1.49	-2.6	248	–	–
CC(=O)OC1CCC2(C)C(CCC3(C)C2C(=O)C=C2C4CC(C)(C(=O)O)CCC4(C)CCC23C)C1(C)C (configuration not stated)	–	323	–	–	–
OC[C@H]1OC(O)[C@H](O)[C@@H](O)[C@@H]1O (some centres not stated)	–	133	–	–	–
CCCCCOC(=O)CC	0.556	-73.1	169	–	–
CCCCC[C@H](O)/C=C/[C@@H]1[C@@H](C/C=C\CCCC(=O)O)[C@@H](O)C[C@H]1O	–	30	–	–	–

Compound	log10 vapour pressure (mmHg)	melting point [°C]	boiling point [°C]	ready biodegradability	log10 Koc (L/kg)
C=CC[N+](=O)[O-]	–	–	128	–	–
CCCCCCCCCCCCBr	-2.41	-9.5	276	–	–
ON=C1CCCC1	–	57.8	196	–	–
Cc1ncc(COP(=O)(O)O)c(C=O)c1O	–	255	–	–	–
O=C(Nc1ccccc1)C(Cl)(Cl)Cl	–	96	–	–	–
CCOC(C)CO (configuration not stated)	–	–	140	–	–
O=Cc1ccc(Oc2ccccc2)cc1	–	24.5	–	–	–
O=C(O)c1c(Cl)ccc2cc(Cl)cnc12	–	274	–	–	–
Cc1ccc(Br)c(C)c1	–	-17	205	–	–
Cc1ccc(Nc2ccc(Nc3ccc(C)cc3)c3c2C(=O)c2ccccc2C3=O)cc1	–	218	–	–	–
CC(=O)Nc1ccc2c(c1)Cc1cc([N+](=O)[O-])ccc1-2	–	262	–	–	–
C#CC	3.63	-103	-23.2	–	–
Cc1ccc(C)c(OCCCC(C)(C)C(=O)O)c1	–	62	–	–	–
CCC(C)(CC)OC(N)=O	-0.155	56	–	–	–
C=COCCC	–	–	65	–	–
O=C(O)c1c(F)c(F)cc(F)c1F	–	151	–	–	–
Oc1c(I)cc(I)c2cccnc12	–	210	–	–	–
CCCCCCCCCCCCCCCc1cccc(O)c1	–	53.5	–	readily biodegradable	–
CCCCB(Cl)CCCC	–	–	173	–	–
O=c1c(I)cn(CC(O)CO)cc1I (configuration not stated)	–	161	–	–	–
CCn1ccnc1	–	–	208	–	–
CCS(=O)(=O)CC	–	73.5	248	–	–
Cc1ccc(C)[nH]1	-0.0942	7.7	171	–	–

same assay, conditions: fish

Compound	log10 BCF	log10 biotransformation half-life (days)
Oc1ccc(Cl)cc1	1.48	-0.41
Cc1ccc(-c2ccc(C)c(C)c2)cc1C	–	-0.01
